These results are taken from US9770026B2, “Substituted pyrimidine compound and uses thereof” (Shenyang Sinochem Agrochemicals R&D Co., Ltd., priority 2012, dated 2017).

The subject of one assay is rice blast. In words: microbe, parasite or virus in culture. The note with it: Pyricularia oryzae, read-out: inhibition rate against rice blast, 25 ppm, in vitro. It is filed as cell-based.
The test system of a further assay is Diamond back moth. In words: insecticidal activity against diamond back moth, airbrush spray. In kind it is in vivo. The note with it: for pest or weed control at 10 µg/mL: 10 mg/L; for pest or weed control at 100 µg/mL: 100 mg/L; for pest or weed control at 600 µg/mL: 600 mg/L. Put shortly: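 Airbrush leaf-disc spray test: both faces of 2 cm cabbage discs received 0.5 ml of test solution at 0.7 kg/cm^2. Solutions were made in acetone:methanol (1:1) and brought to concentration with 0.1% Tween 80 in water. Ten second-instar larvae per disc, triplicates, were held at 25° C and 60˜70% R.H., with mortality recorded at 72 hrs.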

The subject of a further assay is armyworm. In words: bioactivity test against armyworm, airbrush spray. In kind it is in vivo. The following applies: 72 h, read-out: Insecticidal activity against armyworm (%); for pest or weed control at 600 µg/mL: 600 mg/L.
The subject of assay [1] is Green peach aphids (Myzus Persicae Sulzer). In words: bioactivity test against green peach aphid, airbrush foliar spray. In kind it is in vivo. The following applies: for pest or weed control at 2.5 µg/mL / pest or weed control at 5 µg/mL / pest or weed control at 10 µg/mL / pest or weed control at 100 µg/mL / pest or weed control at 600 µg/mL / Insecticidal activity against peach aphid (%): contrastive test; for pest or weed control at 2.5 µg/mL / pest or weed control at 5 µg/mL / pest or weed control at 10 µg/mL / pest or weed control at 100 µg/mL / pest or weed control at 600 µg/mL: read-out: Insecticidal activity against peach aphid (%). The method in brief: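 Death rate was scored at 48 hrs, held at 25±1 C and 60±5% RH, following airbrush foliar spray (0.5 mL, 10 psi) onto cabbage leaf discs bearing about 15-30 aphids. Test solutions: compound dissolved in 1:1 acetone:methanol, brought to concentration with 0.1% tween 80 water.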

The test system of the next assay is wheat powdery mildew. In words: protectant activity in vivo against wheat powdery mildew.
For a further assay, the system named is cucumber downy mildew. In words: protectant activity in vivo against cucumber downy mildew.
A further assay has as its system carmine spider mite. In words: bioactivity test against carmine spider mite, airbrush spray. It is filed as in vivo. The following applies: for pest or weed control at 10 µg/mL / pest or weed control at 100 µg/mL / pest or weed control at 600 µg/mL: Tetranychus cinnabarinus, 72 h, read-out: Insecticidal activity against carmine spider mite (% ); for control against carmine spider mite: mortality after 72 hrs. The method in brief: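 Broadbean seedlings infested with adult mites were sprayed with compound (acetone/methanol stock diluted in 0.1% Tween 80 water) by airbrush at 0.7 kg/cm^2, 0.5 ml. Three replicates were run. Mortality was scored after 72 hrs.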

A further assay relates to corn rust. In words: protectant activity in vivo against corn rust. The note with it: for pest or weed control at 400 µg/mL: read-out: control effect against corn rust (%), 400 mg/L; for pest or weed control at 400 µg/mL / pest or weed control at 0.4 µg/mL / pest or weed control at 1.6 µg/mL / pest or weed control at 6.25 µg/mL / pest or weed control at 25 µg/mL / pest or weed control at 100 µg/mL: protectant activity; for pest or weed control at 0.4 µg/mL: read-out: control effect against corn rust (%), 0.4 mg/L; for pest or weed control at 1.6 µg/mL: read-out: control effect against corn rust (%), 1.6 mg/L; for pest or weed control at 6.25 µg/mL: read-out: control effect against corn rust (%), 6.25 mg/L; for pest or weed control at 25 µg/mL: read-out: control effect against corn rust (%), 25 mg/L; for pest or weed control at 100 µg/mL: read-out: control effect against corn rust (%), 100 mg/L.

Setting [2] is: Myzus persicae, foliar, 48 h, 2.5 mg/L.
[3] abbreviates: Myzus persicae, foliar, 48 h, 5 mg/L.
Setting [4] is: Myzus persicae, foliar, 48 h, 10 mg/L.
[5] abbreviates: Myzus persicae, foliar, 48 h, 100 mg/L.
Setting [6] is: Myzus persicae, foliar, 48 h, 600 mg/L.

On to `FC(F)(F)c1ccc(Oc2ccc(CCNc3ncnc4ccccc34)cc2)cc1` [CK11, reference compound], for which, in the assay on rice blast, the inhibition at 25 ppm came out at 0%. The pest or weed control at 10 µg/mL in the assay with Diamond back moth (72 h) was determined as 5%; in assay [1] (setting [4]) it was 85%. Further, the pest or weed control at 100 µg/mL is 55% with Diamond back moth (72 h); 98% in assay [1] (setting [5]); 60% in the assay on wheat powdery mildew (Triticum aestivum, 168 h, read-out: control effect against wheat powdery mildew (%), 100 mg/L, protectant activity); 30% in the assay on cucumber downy mildew (Cucumis sativus, 168 h, read-out: control effect against cucumber downy mildew (%), 100 mg/L, protectant activity). For the same compound, the pest or weed control at 600 µg/mL was 86% in the assay on Diamond back moth (72 h), 29% in the assay on armyworm and 100% in assay [1] (setting [6]). The pest or weed control at 2.5 µg/mL in assay [1] (setting [2]) is 0%. Further, the pest or weed control at 5 µg/mL in assay [1] (setting [3]) was found to be 25%. For the same compound, in the assay with wheat powdery mildew (Triticum aestivum, 168 h, read-out: control effect against wheat powdery mildew (%), 6.25 mg/L, protectant activity), the pest or weed control at 6.25 µg/mL was 0%. The pest or weed control at 25 µg/mL came out at 40% with wheat powdery mildew (Triticum aestivum, 168 h, read-out: control effect against wheat powdery mildew (%), 25 mg/L, protectant activity) and 0% in the assay with cucumber downy mildew (Cucumis sativus, 168 h, read-out: control effect against cucumber downy mildew (%), 25 mg/L, protectant activity). Besides, the pest or weed control at 400 µg/mL in the assay with wheat powdery mildew (Triticum aestivum, 168 h, read-out: control effect against wheat powdery mildew (%), 400 mg/L, protectant activity) came to 100%; in the assay on cucumber downy mildew (Cucumis sativus, 168 h, read-out: control effect against cucumber downy mildew (%), 400 mg/L, protectant activity) it was 85%. For the same compound, the pest or weed control at 50 µg/mL with cucumber downy mildew (Cucumis sativus, 168 h, read-out: control effect against cucumber downy mildew (%), 50 mg/L, protectant activity) was found to be 0%.

For `CCc1ncnc(NCc2ccc(Oc3ncc(C(F)(F)F)cc3Cl)cc2)c1Cl` [CK38, reference compound], the inhibition at 25 ppm in the assay on rice blast is 0%. Moreover, the pest or weed control at 10 µg/mL was determined as 5% with Diamond back moth (72 h); 0% in assay [1] (setting [4]); 14% in the assay with carmine spider mite (10 mg/L, contrastive test). Also, the pest or weed control at 100 µg/mL with Diamond back moth (72 h) amounted to 21%; in assay [1] (setting [5]), 24%; in the assay on carmine spider mite (100 mg/L, contrastive test) it was 37%. The pest or weed control at 600 µg/mL in the assay with Diamond back moth (72 h) came to 100%; in the assay on armyworm it was 0%; in assay [1] (setting [6]), 100%; with carmine spider mite (600 mg/L, contrastive test), 99%. In the assay with corn rust (Zea mays, 168 h), the pest or weed control at 400 µg/mL was 0%.

`CCc1ncnc(NC(C)c2ccc(Oc3ncc(C(F)(F)F)cc3Cl)cc2)c1Cl` (stereo not drawn) [CK39, reference compound]: the inhibition at 25 ppm with rice blast is 0%. The pest or weed control at 10 µg/mL in the assay on Diamond back moth (72 h) turned out to be 0%; in assay [1] (setting [4]), 2%; with carmine spider mite (10 mg/L, contrastive test), 16%. Moreover, the pest or weed control at 100 µg/mL is 20% in the assay on Diamond back moth (72 h); 86% in assay [1] (setting [5]); 37% in the assay with carmine spider mite (100 mg/L, contrastive test); 100% in the assay with corn rust (Zea mays, 168 h). Moreover, the pest or weed control at 600 µg/mL in the assay on Diamond back moth (72 h) is 80%; in the assay with armyworm it was 0%; in assay [1] (setting [6]) it was 100%; with carmine spider mite (600 mg/L, contrastive test) it was 100%. The pest or weed control at 5 µg/mL in assay [1] (setting [3]) is 0%. The pest or weed control at 0.4 µg/mL in the assay on corn rust (Zea mays, 168 h) stood at 0%. Moreover, the pest or weed control at 1.6 µg/mL with corn rust (Zea mays, 168 h) came out at 10%. Moreover, the pest or weed control at 6.25 µg/mL in the assay on corn rust (Zea mays, 168 h) amounted to 50%. In addition, in the assay with corn rust (Zea mays, 168 h), the pest or weed control at 25 µg/mL amounted to 80%. Also, the pest or weed control at 400 µg/mL in the assay with corn rust (Zea mays, 168 h) worked out at 100%.

Consider `CCc1ncnc(NC(C)c2ccc(Oc3ccc(C(F)(F)F)cn3)cc2)c1Cl` (stereo not drawn) [CK40, reference compound], for which, in the assay on rice blast, the inhibition at 25 ppm was below 50%. In the assay with Diamond back moth (72 h), this compound came in with a pest or weed control at 10 µg/mL of 13%, a pest or weed control at 100 µg/mL of 29% and a pest or weed control at 600 µg/mL of 100%. Moreover, the pest or weed control at 10 µg/mL in the assay with armyworm (10 mg/L) came to 0%. Further, the pest or weed control at 100 µg/mL in the assay with armyworm (100 mg/L) was 6%. In the assay with armyworm, the pest or weed control at 600 µg/mL is 43%. In addition, in assay [1] (setting [2]), the pest or weed control at 2.5 µg/mL was found to be 0%. Also, the pest or weed control at 5 µg/mL in assay [1] (setting [3]) is 27%. In addition, in assay [1] (setting [4]), the pest or weed control at 10 µg/mL was found to be 72%. Moreover, in assay [1] (setting [5]), the pest or weed control at 100 µg/mL stood at 100%. For the same compound, the pest or weed control at 600 µg/mL in assay [1] (setting [6]) came to 100%. Also, in the assay on corn rust (Zea mays, 168 h), the pest or weed control at 0.4 µg/mL came out at 0%, the pest or weed control at 1.6 µg/mL was 30%, the pest or weed control at 6.25 µg/mL came out at 70% and the pest or weed control at 25 µg/mL is 90%. Further, in the assay on corn rust (Zea mays, 168 h), the pest or weed control at 100 µg/mL was 100% and the pest or weed control at 400 µg/mL is 100%.

Regarding `CCc1ncnc(NCCc2ccc(Oc3ccc(C(F)(F)F)cn3)cc2)c1Cl` [Compound I-254], the inhibition at 25 ppm in the assay on rice blast was 80 to 99%. Besides, the “control (test results against diamond back moth)” value in the assay with Diamond back moth (600 ppm, mortality after 72 hrs) was 100%. Besides, in the assay on Diamond back moth (72 h, 100 ppm, mortality after 72 hrs, read-out: control (test results against diamond back moth)), the pest or weed control at 100 ppm was determined as 100%. The “Insecticidal activity against peach aphid (%)” value in assay [1] (1.25 mg/L), in assay [1] (2.5 mg/L), in assay [1] (5 mg/L), in assay [1] (10 mg/L), in assay [1] (100 mg/L) and in assay [1] (600 mg/L) was 100% in each case. Besides, the “control (test results against green peach aphid)” value in assay [1] (5 ppm, death rate after 48 hrs) is 100%; in assay [1] (10 ppm, death rate after 48 hrs), 100%; in assay [1] (100 ppm, death rate after 48 hrs), 100%; in assay [1] (600 ppm, death rate after 48 hrs), 100%. Also, the pest or weed control at 2.5 ppm in assay [1] (Myzus persicae, foliar, 48 h, 2.5 ppm, death rate after 48 hrs) was determined as 100%. For the same compound, the “Insecticidal activity against carmine spider mite (% )” value in the assay on carmine spider mite (2.5 mg/L) amounted to 79%; in the assay with carmine spider mite (5 mg/L), 93%; in the assay with carmine spider mite (10 mg/L, contrastive test), 97%; in the assay on carmine spider mite (100 mg/L, contrastive test), 100%; with carmine spider mite (600 mg/L, contrastive test), 100%. In addition, the “control against carmine spider mite” value with carmine spider mite (10 ppm), in the assay on carmine spider mite (100 ppm) and with carmine spider mite (600 ppm) was 100% in each case. Further, the “protectant activity against corn rust in vivo” value in the assay on corn rust (100 ppm) and in the assay with corn rust (400 ppm) was 100% in each case. In the assay with corn rust (Zea mays, 168 h), the pest or weed control at 0.4 µg/mL turned out to be 40%. The pest or weed control at 1.6 µg/mL in the assay with corn rust (Zea mays, 168 h) was 95%; with wheat powdery mildew (Triticum aestivum, 168 h, read-out: control effect against wheat powdery mildew (%), 1.6 mg/L, protectant activity), 20%. Further, the pest or weed control at 6.25 µg/mL in the assay with corn rust (Zea mays, 168 h) turned out to be 100%. Further, the pest or weed control at 25 µg/mL in the assay with corn rust (Zea mays, 168 h) was 100%. Further, the pest or weed control at 100 µg/mL in the assay with corn rust (Zea mays, 168 h) was 100%. Besides, the pest or weed control at 400 µg/mL with corn rust (Zea mays, 168 h) was determined as 100%. Also, in the assay with corn rust (Zea mays, 168 h, read-out: protectant activity against corn rust in vivo, 6.25 ppm), the pest or weed control at 6.25 ppm was determined as 100%. Besides, the pest or weed control at 25 ppm with corn rust (Zea mays, 168 h, read-out: protectant activity against corn rust in vivo, 25 ppm) amounted to 100%. In addition, the “control effect against wheat powdery mildew (%)” value is reported as 100% in the assay on wheat powdery mildew (6.25 mg/L, protectant activity); 100% in the assay on wheat powdery mildew (25 mg/L, protectant activity); 100% in the assay with wheat powdery mildew (100 mg/L, protectant activity); 100% with wheat powdery mildew (400 mg/L, protectant activity). The “protectant activity against wheat powdery mildew in vivo” value in the assay on wheat powdery mildew (100 ppm) and in the assay on wheat powdery mildew (400 ppm) was 100% each time. Also, the “protectant activity against cucumber downy mildew in vivo” value with cucumber downy mildew (100 ppm) and in the assay on cucumber downy mildew (400 ppm) was 100% each time. In the assay with cucumber downy mildew (Cucumis sativus, 168 h, read-out: protectant activity against cucumber downy mildew in vivo, 50 ppm), the pest or weed control at 50 ppm worked out at 100%.
